Data: patent publication US20260183274A1, “PDK1 REGULATORY COMPOUND AND COMPOSITION CONTAINING THE SAME” (PROVIBIO CO., LTD., priority 2024, published 2026)

Experiments:
[1] = test system: T cells isolated from mouse spleens; test: T cell proliferation inhibition (CFSE flow cytometry, anti-CD3/anti-CD28 stimulation); assay type: cell-based; conditions: mouse spleen T cells, 3 days; for inhibition at 0.01 µM / inhibition at 0.1 µM / inhibition at 1 µM / inhibition at 10 µM / inhibition at 30 µM / inhibition at 50 µM: Mus musculus, T-cell, 72 h, read-out: Proliferation inhibition rate (%)
Method in brief: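 Proliferation inhibition (%) came from flow cytometry of CFSE dilution after 3 days' culture at 37 °C with compound (10 nM, 100 nM, 1, 10, 30, 50 μM; triplicate wells). Cells were magnetically purified T cells from C57BL/6 mouse spleens, 2×10^5 per well, stimulated with 0.5 μg/mL each anti-CD3 and anti-CD28.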

[2] = test system: Human Osteosarcoma, Saos-2; test: Relative cell viability CCK-8, Saos-2; assay type: cell-based; conditions: for Relative cell viability (%), Saos-2: 48 hours
Method: Human-derived head and neck cancer cell line Fadu and osteosarcoma cell line Saos-2 were cultured in MEM medium containing 10% FBS, 100 U/mL penicillin, and 100 μg/mL streptomycin.
(§1) Following stabilization, the cells were harvested using Trypsin-EDTA treatment, centrifuged at 1,200 rpm for 3 minutes, the supernatant was removed, and the cells were resuspended in the same medium. They were then seeded into a 96-well plate (Costar 96-well cell culture plate, Corning) at 100 μL per well, and the conditions were adjusted as indicated in Table 5.
(§2) The cells were cultured in a 5% CO2 incubator at 37° C. for 24 hours, and after stabilization of the cells, each plate was washed with 200 μL of PBS per well and treated with 50 μL of culture medium per well.
(§3) After that, 10 μL of CCK-8 was added to each well, and the plate was incubated again at 37° C. in a 5% CO2 incubator for 2 hours.
(§4) In other words, when the survival rate of untreated cells (DMSO) is set at 100%, the relative cell survival rate in each group treated with the drug at different concentrations is indicated.

[3] = test system: Human Colorectal Carcinoma cell line, HCT-116; test: Relative cell viability CCK-8, HCT-116; assay type: cell-based; conditions: 48 hours; for viability at 1 µM / viability at 10 µM / viability at 30 µM / viability at 50 µM: Homo sapiens, HCT-116
Method: Human-derived breast cancer cell line MCF-7, human-derived lung cancer cell line A549, human-derived colorectal cancer cell line HCT-116, human pancreatic cancer cell line AsPC-1, glioblastoma cell line A172, and melanoma cell line Malme-3M were obtained from the Korean Cell Bank. gastric cancer cell line SNU-719, and bladder cancer cell line T24 were cultured in RPMI-1640 medium containing 10% FBS.
as §1, §2, §3, §4

PDK1 = target: T1, PDK1 (Homo sapiens, UniProt O15530); test: PDK1 kinase activity inhibition, IC50 (in vitro kinase assay, luminescence); assay type: biochemical; conditions: FIG. 4; read-out: IC50 for inhibiting PDK1 kinase activity
T1 construct: purchased Promega V9681
T1 sequence (O15530 1-556): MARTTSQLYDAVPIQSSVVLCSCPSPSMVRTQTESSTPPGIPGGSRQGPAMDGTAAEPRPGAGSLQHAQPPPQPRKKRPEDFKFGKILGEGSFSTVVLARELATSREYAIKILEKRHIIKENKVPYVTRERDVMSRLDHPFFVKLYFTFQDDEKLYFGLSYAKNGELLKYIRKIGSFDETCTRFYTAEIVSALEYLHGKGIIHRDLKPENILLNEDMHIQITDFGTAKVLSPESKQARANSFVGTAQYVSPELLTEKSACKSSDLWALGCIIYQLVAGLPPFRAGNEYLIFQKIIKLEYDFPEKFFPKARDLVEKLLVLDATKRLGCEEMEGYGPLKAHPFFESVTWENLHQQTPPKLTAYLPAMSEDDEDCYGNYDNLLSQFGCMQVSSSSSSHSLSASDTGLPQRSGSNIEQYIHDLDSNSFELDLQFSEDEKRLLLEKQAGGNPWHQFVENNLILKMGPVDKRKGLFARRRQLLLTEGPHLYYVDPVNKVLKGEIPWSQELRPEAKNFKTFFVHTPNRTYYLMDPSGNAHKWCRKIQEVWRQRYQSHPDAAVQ
Method: As shown in the table below, this invention establishes an in vitro kinase assay system to quantitatively evaluate PDK1 kinase activity inhibition, and utilizes this system to compare and analyze the activity of new PDK1 inhibitor candidate compounds.
Specifically, after reacting ATP (100 μM), substrate (PDKtide, 0.5 μg/μL), and PDK1 enzyme (30 ng) at a specific concentration, the difference in ATP consumption between the group treated with each candidate compound and the DMSO control group was measured using luciferase-based luminescence signals (RLU).
Additionally, enzyme kinetics analysis was performed to quantitatively analyze the effect of the compounds of the present invention on the enzymatic activity of PDK1 (3-Phosphoinositide-dependent protein kinase-1) and to confirm the inhibition pattern.
Prior to the analysis, the half-maximal inhibitory concentration (IC50) values of the compounds GO15F, GO86, and GO88 of the present invention for inhibiting PDK1 kinase activity were determined, and the results are shown in FIG. 4.

Row | IC50 (PDK1) | SMILES | inhibition at 0.01 µM ([1]; compound 10 nM) | inhibition at 0.1 µM ([1]; compound 100 nM) | inhibition at 1 µM ([1]; compound 1 μM) | inhibition at 10 µM ([1]; compound 10 μM) | inhibition at 30 µM ([1]; compound 30 μM) | inhibition at 50 µM ([1]; compound 50 μM) | Proliferation inhibition rate (%) ([1]; compound 10 nM) | Proliferation inhibition rate (%) ([1]; compound 100 nM) | Proliferation inhibition rate (%) ([1]; compound 1 μM) | viability at 1 µM ([3]; 1 μM) | viability at 10 µM ([3]; 10 μM) | viability at 30 µM ([3]; 30 μM) | viability at 50 µM ([3]; 50 μM) | also measured
1 | – | Nc1ncccc1C(=O)NCCCCCCCCCCCCN1CCOCC1 [Compound 2, 2-Amino-N-(12-morpholin-4-yl-dodecyl)-nicotinamide] | -1.47% | 0% | 0% | 100% | 100% | 100% | – | – | – | – | – | – | – | –
2 | – | Nc1ncccc1C(=O)NCCCCCCCCCCCCN1CCNCC1 [Compound 5, 2-Amino-N-(12-(piperazin-1-yl)dodecyl)-nicotinamide] | – | 100% | 100% | 100% | 100% | 100% | – | – | – | – | – | – | – | Proliferation inhibition rate (%) ([1]; compound 10 nM, listed as GO78, 0.01 µM): −27.49%; Relative cell viability (%), Saos-2 ([2]; 1 μM, listed as GO78, 1 µM): 28.36%; Relative cell viability (%), Saos-2 ([2]; 10 μM, listed as GO78, 10 µM): 33.69%; Relative cell viability (%), Saos-2 ([2]; 30 μM, listed as GO78, 30 µM): 19.77%; Relative cell viability (%), Saos-2 ([2]; 50 μM, listed as GO78, 50 µM): 2.60%
3 | 11.3 nM | CC1(C)CN(CCCCCCCCCCCCC(=O)Nc2nc(N)c3[nH]cnc3n2)CCO1 [Compound 11, 12-[4-(2,2-dimethylmorpholin-4-yl)]dodecyl-N-(6-aminopurine-2-yl) carboxamide] | – | – | – | – | – | – | −25.47% | 100.00% | 100.00% | – | – | – | – | Relative cell viability (%), HCT-116 ([3]; 1 μM): 21.36%; Relative cell viability (%), HCT-116 ([3]; 10 μM): 24.91%; Relative cell viability (%), HCT-116 ([3]; 30 μM): 24.78%; Relative cell viability (%), HCT-116 ([3]; 50 μM): 25.26%; Proliferation inhibition rate (%) ([1]; compound 10 μM): 100.00%; Proliferation inhibition rate (%) ([1]; compound 30 μM): 100.00%; Proliferation inhibition rate (%) ([1]; compound 50 μM): 100.00%; Relative cell viability (%), Saos-2 ([2]; 1 μM): 36.73%; Relative cell viability (%), Saos-2 ([2]; 10 μM): 24.98%; Relative cell viability (%), Saos-2 ([2]; 30 μM): 16.00%; Relative cell viability (%), Saos-2 ([2]; 50 μM): 36.73%
4 | 13 nM | Nc1ncccc1C(=O)NCCCCCCCCCCCCN1CCNCC1 [Compound 14, 2-Amino-N-(12-(piperazin-1-yl)dodecyl)nicotinamide] | – | – | – | – | – | – | – | – | – | 14.2% | 12.3% | 9.38% | 7.61% | Proliferation inhibition rate (%) ([1]; compound 10 nM, listed as GO88, 0.01 µM): 17.83%; Proliferation inhibition rate (%) ([1]; compound 10 μM, listed as GO88, 10 µM): 85.09%; Proliferation inhibition rate (%) ([1]; compound 30 μM, listed as GO88, 30 µM): 98.95%; Relative cell viability (%), Saos-2 ([2]; 50 μM, listed as GO88, 50 µM): 0.00%; viability at 1 µM ([2]; Homo sapiens, SAOS-2, 48 h, 1 μM): 47.1%; viability at 10 µM ([2]; Homo sapiens, SAOS-2, 48 h, 10 μM): 34.2%; viability at 30 µM ([2]; Homo sapiens, SAOS-2, 48 h, 30 μM): 16.3%
5 | – | Nc1nc(NC(=O)CCCCCCCCCCCCN2CCN(CCO)CC2)nc2nc[nH]c12 [Compound 15, 12-[4-(2-hydroxyethyl)piperazin-1-yl]dodecyl-N-(6-aminopurine-2-yl) carboxamide] | -0.4% | 100% | 100% | 100% | 100% | 100% | – | – | – | 12.1% | 11.5% | 10% | 9.08% | –

Row | SMILES | IC50 (PDK1) | inhibition at 0.01 µM ([1]; compound 10 nM) | inhibition at 0.1 µM ([1]; compound 100 nM) | inhibition at 1 µM ([1]; compound 1 μM) | inhibition at 10 µM ([1]; compound 10 μM) | inhibition at 30 µM ([1]; compound 30 μM) | inhibition at 50 µM ([1]; compound 50 μM) | Proliferation inhibition rate (%) ([1]; compound 10 nM) | Proliferation inhibition rate (%) ([1]; compound 100 nM) | Proliferation inhibition rate (%) ([1]; compound 1 μM) | viability at 1 µM ([3]; 1 μM) | viability at 10 µM ([3]; 10 μM) | viability at 30 µM ([3]; 30 μM) | viability at 50 µM ([3]; 50 μM) | also measured
6 | Nc1ncccc1C(=O)NCCCCCCCCCCCCF [Compound 57, 2-Amino-N-(12-fluoro-dodecyl)-nicotinamide] | 380 nM | – | – | – | – | 100% | 100% | −9.32% | −5.28% | 16.20% | – | – | – | – | –
